Measurements from US7388006B2, “Non-steroidal progesting” (Bayer Schering Pharma AG, priority 2002, dated 2008).

Assays:
[1] = tested on: uterine growth in ovariectomized estradiol-treated rats; assay: Antiuterotropic activity in the rat (uterine weight, epithelial height); type: in vivo; details: for Functional antiestrogenic effect (uterine weight gain, epithelial cell height): 3 days
Source text: Compounds with estrogenic activity induce uterine growth, resulting in an increase in uterine weight. They also induce a characteristic change of the appearance of the endometrial epithelium as indicated by an increase in epithelial height. PR modulators counteract estrogenic activity by inhibiting uterine weight gain and epithelial cell proliferation. This effect is sometimes referred to as “functional antiestrogenic” effect.
To test for antiuterotropic activity of the most preferred progestin according to the present invention, i.e., compound ((+)-1), ovariectormized rats are treated for 3 days with 0.3 μg/kg/d estradiol (E2) and in addition with increasing doses of ((+)-1) (cf. FIG. 4). Each test group shown in FIG. 4 consists of 10 rats, with the exception of one group (cf. FIG. 4, bottom diagram, 150 μg/kg of ((+)-1)), indicated by “#”), which consists of nine rats.
Changes in uterine weight, luminal epithelial height and the status of cell proliferation and keratinization of the vaginal smear servs as parameters for estrogenic activity. In combination with ((+)-1), decreases in estrogen-stimulated uterine weight gain and luminal epithelial height are parameters for antiestrogenic activity (cf. FIG. 4).
For the reference group (estradiol (E2)-treated), stimulation of the uterine weight and the luminal epithelial height in comparison to the vehicle control was calculated as follows: […]
In the antiestrogen assay, inhibition of uterine weight or luminal epithelial height in comparison to the effect seen with the reference compound (estradiol) was calculated as follows: […]
For statistical analysis, the 95% confidence interval was calculated using a software which was developed by the Biostatistical Department of Schering AG. The asterisks indicate a significant difference (p<0.05).

[2] = tested on: PR-A; type: cell-based
Protocol: The method for screening for PR isoform-specific progestins according to the present invention is carried out with first and second SK-N-MC cells stably transfected with a plasmid expressing the HPR-A (first cells) or the hPR-B (second cells) and the LUC reporter gene linked to the hormonally responsive MTV promoter.
The cells are cultured in Minimum Essential Medium with Earl's Salts (S-MEM, without L-glutamine; Gibco BRL, no. 21090-022), supplemented with 10% fetal calf serum (FCS), penicillin 100U/streptomycin 100 μg/ml (Biochrom, no. A2213), L-glutamine 4 mmol/l (Gibco BRL, no. 25030-024), sodium pyruvate 1 mmol/l (Biochrom, no. L0473) and 1×non-essential amino acids (Biochrom, no. K0293) at a temperature of 37° C. and in an atmosphere of 5% carbon dioxide.
For the transcription assay, the cells are seeded onto 96-well dishes (2×10^4 cells/dish) and cultured in a medium as described above, with the exception that the FCS is replaced by a 3% charcoal stripped FCS. 48 hours later, cells are contacted with prediluted test compounds. For determination of agonistic activity, cells are cultured in the presence of 6 increasing concentrations (10^−6 to 10^−11 mol/l) of test progestins. As a positive control for reporter gene induction cells are treated with 10^−6 to 10^−11 mol/l R5020 (promegestone). As a negative control for reporter gene induction, cells are cultured in 1% ethanol.
After incubation with test progestins for 24 hours, the medium is removed and cells are lysed with 20 μl of lysis buffer (Luciferase Assay System E 153A; Promega) and under agitation of the plate for 101 min. After addition of 30 μl of luciferase reagent (Luciferase Assay System E 151A+152A; Promega) within 30 seconds per plate, the activity of the luciferase reporter gene product is determined in the cell lysates by means of a Microlite ML 3000 microtiter plate luminometer (Dynatech) in cycle mode.
Evaluation of the response gives the efficacy [%], and evaluation of the EC50s values gives the potency [nM]. Calculation of the agonistic activity is conducted as follows:
The LUC activity [%] for the measured data points is calculated as follows:
[formula] wherein CI=100% stimulation (R5020, 10^−7 mol/l) and CO=0% stimulation (ethanol, 1%).
Thus, the efficacy [%] is calculated according to: […]
The potency [nM], i.e. the EC50, is determined graphically.

[3] = biological target: T1, estrogen receptor-α (ERα) (Homo sapiens, UniProt P03372); assay: Binding to the estrogen receptor-α in vitro
T1 sequence (P03372 1-595): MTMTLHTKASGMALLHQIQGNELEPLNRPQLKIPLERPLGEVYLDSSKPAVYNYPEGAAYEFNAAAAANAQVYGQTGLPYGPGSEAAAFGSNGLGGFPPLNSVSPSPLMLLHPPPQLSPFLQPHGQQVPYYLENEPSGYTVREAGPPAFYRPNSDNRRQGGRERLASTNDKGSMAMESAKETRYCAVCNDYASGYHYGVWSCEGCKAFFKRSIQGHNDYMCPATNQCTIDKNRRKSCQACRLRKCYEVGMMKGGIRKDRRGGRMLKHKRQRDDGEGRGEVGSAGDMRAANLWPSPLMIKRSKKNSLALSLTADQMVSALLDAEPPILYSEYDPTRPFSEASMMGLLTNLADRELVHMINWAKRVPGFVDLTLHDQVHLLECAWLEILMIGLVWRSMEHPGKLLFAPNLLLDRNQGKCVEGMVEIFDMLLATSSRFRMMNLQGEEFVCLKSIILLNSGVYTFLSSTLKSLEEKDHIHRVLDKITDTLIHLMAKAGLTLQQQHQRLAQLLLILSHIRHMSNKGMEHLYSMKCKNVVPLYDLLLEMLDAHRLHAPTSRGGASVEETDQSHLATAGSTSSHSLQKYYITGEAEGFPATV

[4] = tested on: rabbit endometrium; assay: Endometrial transformation in rabbit (Clauberg test, McPhail index); type: in vivo
Protocol: The test is performed in juvenile female rabbits (New Zealand white, 30 to 35 days old; obtained from Schriever, Germany). From days 1 to 4, all rabbits are primed with […] (s.c., 0.5 ml/kg/day) in order to induce proliferation of the endometrium. From days 7 to 10, the test compound is applied orally (p.o., 0.5 ml/kg/day) at doses of 0.001, 0.01 and 0.1 mg/kg/day. A group which receives only vehicle after estradiol priming serves as a negative control. A second group which receives only progesterone in order to induce endometrial differentiation after estradiol priming is used as a positive control. In order to study the progestagenic activity of ((+)-1), which is the most preferred compound according to the present invention, one treatment group-receives only the compound ((+)-1) after estradiol priming.
Autopsy is performed on […]. As a parameter for progestagenic activity, the McPhail index (i.e., the degree of differentiation) is determined by means of light microscopy (scores: 1 to 4; 1=no glandular differentiation, 4=maximal differentiation).

## O=C1OCc2cc(NC(=O)C(O)(CC3(c4cc(C(F)(F)F)ccc4F)CC3)C(F)(F)F)ccc21 (single isomer, unassigned; (+)) [((+)-1), (+)-5-{2-hydroxy-3-[1-(2-fluoro-5-trifluoromethylphenyl)-cyclopropyl]-2-trifluoromethyl-propionylamino}-phthalide]
[1]; 5 μg/kg/d with estradiol
  Functional antiestrogenic effect (uterine weight gain, epithelial cell height): submaximum effect
[1]; 15 μg/kg/d with estradiol
  Functional antiestrogenic effect (uterine weight gain, epithelial cell height): Maximum effect
[1]; in combination with estradiol, FIG. 4
  Functional antiestrogenic effect, in words: strong functional antiestrogenic effect
[2]; PR-A efficacy minus PR-B efficacy
  Δ agonism efficacies (A-B): 64
[2]; PR-A versus PR-B
  PR isoform selectivity in words: selective PR-A agonist
[3]
  Affinity for the estrogen receptor-α (ERα): negligible affinity
[4]; Clauberg test, rabbit
  Potency upon subcutaneous versus oral application, in words: identical potency
[4]; oral (p.o.)
  Threshold Value (endometrial transformation): 0.001 to 0.01 mg/kg
